Experiments:
Bacillus spores = assay: Nisin in letheen broth sub-culture: out-growth of Bacillus spores; format: cell-based; conditions: 0.1 μg/ml nisin in letheen broth
Procedure: (§1) Nisin is not an ingredient in the product formulation. It is a modification to the AOAC test method. Specifically, when setting up the test sub-culture 0.1 μg/ml of nisin is added to the letheen broth.

test organism = assay: Nisin in letheen broth sub-culture: effect on the test organism; format: cell-based; conditions: 0.1 μg/ml nisin in letheen broth
Procedure: as §1

## nisin
Bacillus spores
  out-growth of Bacillus spores transferred on the carrier: inhibits out-growth
Test organism
  bacteriostatic effect on the test organism: no bacteriostatic effect
